Values after ≈ are worked out from the molar mass of the structure shown. Read-outs that look alike come from different tables or passages of the source.

Data on 2 compounds can be found in US20090149482A1, “STEREOCHEMICALLY DEFINED DIPEPTIDE ESTERS OF ANTIVIRAL AGENTS FOR ENHANCED OCULAR TREATMENT” (priority 2001, published 2009).

For one data set, the system named is HSV-1. As to the kind of experiment: In vitro antiviral screening, CPE inhibition in HFF cells. The note with it: Human alphaherpesvirus 1, HFF. In kind it is cell-based, herpes simplex virus 1.
The next data set relates to EBV. As to the kind of experiment: In vitro antiviral screening, VCA Elisa. The note with it: human gammaherpesvirus 4; EBV, VCA Elisa. In kind it is cell-based, epstein-barr virus.
Data set [1] can be described thus: in vitro. The note with it: New Zealand albino, rabbit.
Data set [2] concerns rabbit corneal cell line (SIRC). The note with it: SIRC cells.
A further data set can be described thus: Aqueous solubility. The format is physicochemical.
For the next data set, the target named is T1, hPEPT1 (Homo sapiens, UniProt P46059).
T1 construct: endogenous in cells; host or cells: Caco-2 (human colon carcinoma, ATCC)
T1 sequence (P46059 1-708): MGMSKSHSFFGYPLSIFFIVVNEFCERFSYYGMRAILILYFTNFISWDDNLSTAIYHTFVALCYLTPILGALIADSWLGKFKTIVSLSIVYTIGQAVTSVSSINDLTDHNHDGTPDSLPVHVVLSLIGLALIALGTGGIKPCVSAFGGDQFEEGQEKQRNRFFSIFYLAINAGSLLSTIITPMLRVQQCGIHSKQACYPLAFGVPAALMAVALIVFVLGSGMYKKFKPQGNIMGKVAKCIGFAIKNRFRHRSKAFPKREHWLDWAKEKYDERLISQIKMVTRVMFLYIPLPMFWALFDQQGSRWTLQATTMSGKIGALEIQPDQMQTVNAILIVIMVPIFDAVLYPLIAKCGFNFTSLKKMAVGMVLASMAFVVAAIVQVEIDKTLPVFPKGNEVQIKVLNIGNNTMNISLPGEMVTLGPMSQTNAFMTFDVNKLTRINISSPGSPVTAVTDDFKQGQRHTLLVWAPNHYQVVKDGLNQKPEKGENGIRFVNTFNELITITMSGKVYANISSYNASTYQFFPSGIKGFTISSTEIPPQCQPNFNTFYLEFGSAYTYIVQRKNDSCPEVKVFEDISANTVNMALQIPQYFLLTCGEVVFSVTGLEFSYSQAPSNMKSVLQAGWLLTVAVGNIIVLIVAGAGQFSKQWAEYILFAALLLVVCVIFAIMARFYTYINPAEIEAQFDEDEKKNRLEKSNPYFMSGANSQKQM
Put plainly: [3H] Glycylsarcosine uptake and its inhibition in Caco-2 cells (affinity towards peptide transporter). The format is cell-based. The note with it: for Ki: read-out: Ki. The source says:
Materials: [^3H] Glycylsarcosine (Gly-Sar; 4 Ci/mmol) was purchased from Moravek Biochemicals (Brea, Calif.) and [^14C] Mannitol (50 mCi/mmol) was supplied by Amersham (Piscataway, N.J.). Human colon carcinoma derived Caco-2 cells were obtained from American Type Culture Collection (ATCC, Rockville, Md.). The growth medium, Dulbecco's modified Eagle Medium was obtained from Life Technologies (Grand Island, N.Y.). […] Fetal bovine serum (FBS) was purchased from JRH Biosciences (Lenexa, Kans.). Culture flasks (75 cm^2 growth area), polyester Transwells® (pore size 0.4 Cm with diameter 6.5 mm) and polyester membranes (pore size 0.4 Cm) were procured from Costar (Bedford, Mass.). The buffer components and solvents were obtained from Fisher Scientific (St. Louis, Mo.). All the di-peptide esters of acyclovir were custom synthesized in our laboratory. […] Cell Culture: All cultures were maintained in humidified incubator at 37° C. with a 5% carbon dioxide in air atmosphere. Caco-2 cells were obtained at passage 25 from American Type Culture Collection (ATCC) and grown in plastic tissue culture flasks. […] When 80% confluent, these cells were removed by treating them with Trypsin/EDTA and plated at a density of 100,000 cells/cm^2 on collagen coated plastic dishes containing clear polyester membranes (0.636 cm^2, […]) or 12-well tissue culture treated plastic plates. Cells were then grown in medium containing 10% FBS (heat-inactivated). […] [^14C] […] Metabolism studies in Cell Suspensions: Confluent Caco-2 cells, grown in tissue culture flasks were isolated with the aid of mechanical scraper and washed thrice with DPBS. […] One-hundred micro-liters of samples were withdrawn at predetermined time intervals and the sample was purified by precipitating the cellular proteins into the organic solvent mixture and stored at −80° C. until further analysis. The protein content of the cell suspension was determined by the method of Bradford using bovine serum albumin as the standard (BioRad protein estimation kit, Hercules, Calif.). […] Transport studies: Transport experiments were done using Side-Bi-Side™ diffusion cells (type VSC-1, Crown Glass Company Inc.) and Transwell® inserts. Prior to the experiment with Gly-Sar, Caco-2 cell monolayers grown on the clear polyester membranes and Transwell® inserts were washed with DPBS (pH 6.0) and incubated at 37° C. Freshly prepared drug solutions in DPBS (pH 6.0) was placed in the donor chamber and the receiver chamber was filled with DPBS. The volumes of donor and receptor chambers were 3 ml each for Side-Bi-Side™ diffusion cells and 0.5 ml and 1.5 ml respectively for Transwell® inserts. […] The samples were stored at −80° C. until analyzed HPLC. All experiments were performed at 37° C. […] The concentration dependent uptake of glycylsarcosine was studied using [^3H] […] For Dixon plots and Dose Response studies [^3H] […] Following incubation, the cell monolayers were washed three times with ice-cold HEPES buffer to terminate the uptake experiment. After the washings cells were lysed overnight using 1 ml 0.1% (w/v) Triton X-100 in 0.3 N NaOH at room temperature. Aliquots (500 μl) from each well were then transferred to scintillation vials containing 5 ml scintillation cocktail (Fisher Scientific, Fairlawn, N.J.). […] The amount of protein in the cell lysate was measured by the BioRad protein estimation kit using bovine serum albumin as standard (BioRad Protein estimation Kit, Hercules, Calif.). Analytical Procedures: All samples were assayed using HPLC. […] The column used was a C18 Luna column 4.6×250 mm (Phenomenex). The mobile phase consisted of a mixture of buffer and an organic modifier. The percentage of organic phase was varied in order to elute compounds of interest.

The conditions of data set [3]: New Zealand albino, rabbit.
In a further data set the test system is HSV-2. As to the kind of experiment: In vitro antiviral screening, CPE inhibition in HFF cells. The note with it: Human alphaherpesvirus 2, HFF; HSV-2, CPE Inhibition. The format is cell-based, herpes simplex virus 2.
The test system of data set [4] is oligopeptide transporter on the rabbit cornea. The note with it: +10 mM of the ester.
The next data set relates to Caco-2 cell suspension. The note with it: Caco-2 cell suspension at pH 7.4; * = no intact drug detected during the experiment.
Data set [5] is described as follows: in vitro. The note with it: human, Caco-2, pH 7.4.
A short description of data set [6]: Corneal permeation across freshly excised rabbit cornea. The note with it: New Zealand albino.

On to `Nc1nc2c(ncn2COCCO)c(=O)[nH]1` [ACV, 2-amino-1,9-dihydro-9-[(2-hydroxyethoxy)methyl]-6H-purin-6-one], for which the EC50 in the data set with HSV-1 (read-out: EC50 (concentration required to inhibit viral cytopathogenicity by 50%), HSV-1, CPE Inhibition) stood at 7.1 µM; in the data set with HSV-1 (HSV-1, running text, read-out: EC50 against HSV-1) it was 7.1 µM; with EBV, 7.5 µM; in the data set on HSV-2, 6.6 µM. The Papp in the data set “in vitro [1]” was determined as 4.24 ± 1.41 ×10⁻⁶ cm/s; in data set [3], 4.24 ×10⁻⁶ cm/s. For the same compound, the percent survival in data set [2] (0.025 mM) is 94.71%; in [2] (0.1 mM), 89.41%; in [2] (0.5 mM), 69.81%; in data set [2] (1 mM), 57.37%; in data set [2] (5 mM), 49.12%. Moreover, in [2] (5 mM), the “% viable cells” value is 49.1±4.2%. Moreover, the solubility in “Aqueous solubility” (25° C.) came to 2500 µg/mL (≈ 11.1 mM); in “Aqueous solubility” (aqueous medium, 37° C., read-out: saturable solubility), 2000 µg/mL (≈ 8.88 mM). Moreover, the “effect on the uptake of [3H] Gly-Sar” value at hPEPT1 (Caco-2, pH 6.0, 10 minutes) is listed as “did not inhibit”.

With `CC(C)C(NC(=O)C(N)Cc1ccc(O)cc1)C(=O)OCCOCn1cnc2c(=O)[nH]c(N)nc21` (stereo not drawn) [Tyr-Val-ACV], the “Papp (% Control) of [3H] Val-ACV” value in data set [4] was 31.1 (±9.5) % Control. Further, at hPEPT1 (Gly-Sar with drug (10 mM), Lineweaver-Burk), the “Vmax of Gly-Sar uptake in presence of the drug” value is 0.091 ± 0.07 µmol/min/mg. The inhibition constant Ki at hPEPT1 (Lineweaver-Burk) came to 4110 ± 320 µM; on hPEPT1 (Michaelis-Menten), 4960 ± 970 µM. Moreover, the “10^2 × kobs” value in the data set with Caco-2 cell suspension is listed as 10.1 ± 0.46 min^−1mg^−1 protein. Further, the “hydrolytic rate constant k” value reads like this: (Aqueous Humor) 2.3 (±0.11) k × 10^3 min^−1 mg^−1 protein; (Cornea homogenate) 4.9 (±0.69) k × 10^3 min^−1 mg^−1 protein; (Iris-Ciliary Body homogenate) 5.3 (±0.74) k × 10^3 min^−1 mg^−1 protein; (Lens homogenate) 3.1 (±0.63) k × 10^3 min^−1 mg^−1 protein; (Vitreous Humor) 1.7 (±0.56) k × 10^3 min^−1 mg^−1 protein. The compound also showed a half-life at 0.2 mM in the data set “in vitro [5]” of 6.9 ± 0.3 min. The compound also came in with a Papp at 3 h in data set [6] of 7.19 ×10⁻⁶ cm/s.
